The source of these data is ChEMBL document CHEMBL1124041, “Conformational and steric aspects of the inhibition of phenylethanolamine N-methyltransferase by benzylamines” (J Med Chem, 1988).

Test [1] has as its target T1, Phenylethanolamine N-methyltransferase (Bos taurus) (UniProt P10938).
T1 sequence (whole entry): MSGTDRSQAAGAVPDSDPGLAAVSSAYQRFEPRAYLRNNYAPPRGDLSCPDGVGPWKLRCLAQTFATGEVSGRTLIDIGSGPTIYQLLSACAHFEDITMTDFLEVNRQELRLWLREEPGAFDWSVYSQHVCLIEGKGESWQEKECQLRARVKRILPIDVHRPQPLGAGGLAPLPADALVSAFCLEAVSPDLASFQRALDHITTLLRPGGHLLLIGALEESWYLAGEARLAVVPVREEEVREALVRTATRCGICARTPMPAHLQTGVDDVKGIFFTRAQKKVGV
Description: Molar pI50 value for phenylethanolamine N-methyl-transferase (PNMT) inhibition.

In test [2] the target is T1, Phenylethanolamine N-methyltransferase (Bos taurus). Briefly: Acid dissociation constant of phenylethanolamine N-methyl-transferase (PNMT) inhibition.
The target in test [3] is T2, Phenylethanolamine N-methyltransferase (Bos taurus, UniProt P10938).
T2 sequence (P10938 whole entry): T1 sequence (whole entry)
Description: Inhibition of phenylethanolamine N-methyl-transferase (PNMT).

In general, Ki refers to a measure of affinity in units of concentration, obtained from inhibition or displacement.

The structures appear in SMILES notation.

On to `Cc1cccc(CN)c1`, for which, in test [1], the pI50 was 3.82 M. Further, the pKa in test [2] worked out at 9.45.

The compound `NCc1ccc(Br)cc1` registered a pI50 in test [1] of 4.37 M. In addition, the pKa in test [2] came out at 9.13.

In test [3], `c1ccc2c(c1)C1CC[C@H]2N1` came in with a Ki of over 2000 µM.

Turning to `CC1Cc2ccccc2CN1` (configuration not stated), the Ki in test [3] was 3 µM.

In test [1], `NCc1cccc(F)c1` came in with a pI50 of 4 M. For the same compound, the pKa in test [2] is 9.04.

`NCc1ccc(Cl)cc1` showed a pI50 in test [1] of 4.07 M. For the same compound, in test [2], the pKa came out at 9.14.

As for `NC1CC2C[C@@H]1c1ccccc12` (some centres not stated), affinity in test [3] was put at a Ki of 479 µM.

`NCc1ccc(F)cc1` returned a pI50 in test [1] of 3.17 M. This compound came in with a pKa in test [2] of 9.3.

Compound `c1ccc2c(c1)C1CC[C@H]2NC1` came in with an inhibition constant Ki in test [3] of over 2000 µM.

As for `Cc1ccc(CN)cc1`, the pI50 in test [1] came out at 3.16 M. Further, the pKa in test [2] was 9.54.

For the compound `c1ccc2c(c1)CC1CC[C@H]2N1`, affinity in test [3] was put at a Ki of 153 µM.

`NCc1cccc(Br)c1` yielded a pI50 in test [1] of 5.17 M. In test [2], this compound yielded a pKa of 8.98.

As to `COc1ccc(CN)cc1`, in test [1], the pI50 was 2.78 M. The compound also returned a pKa in test [2] of 9.51.

On to `N[C@@H]1CC2CCC1c1ccccc12` (some centres not stated), for which the inhibitory constant (Ki) in test [3] was over 1000 µM.

`NCc1ccccc1` returned a pKa in test [2] of 9.38.

Consider `NCc1cccc(Cl)c1Cl`, for which the pKa in test [2] worked out at 7.35.

As for `c1cc2c3c(c1)CC[C@@H]3CCC2`, in test [3], the affinity, expressed as Ki, was 52 µM. This counts as double-digit micromolar.

With `NCc1cccc(Cl)c1`, the pI50 in test [1] turned out to be 5.07 M. In test [2], this compound gave a pKa of 9.01.
